According to ChEMBL document CHEMBL1201862, “PubChem BioAssay data set” (2004):
Active and inactive are the calls of the source.

Assays:
[1] = target: DNA (cytosine-5)-methyltransferase 1 (Homo sapiens, UniProt P26358); experiment: inhibition of DNA methylation by DNMT1 – biochemical, fluorescent molecular beacon, confirmation (AID 602386); type: functional
[2] = target: T1, Carboxy-terminal domain RNA polymerase II polypeptide A small phosphatase 1 (Homo sapiens, UniProt Q9GZU7); experiment: CTDSP1 inhibitors, concentration-response, biochemical, absorbance readout, ultra-high-throughput screen actives (AID 540297); type: functional
T1 sequence (Q9GZU7 whole entry): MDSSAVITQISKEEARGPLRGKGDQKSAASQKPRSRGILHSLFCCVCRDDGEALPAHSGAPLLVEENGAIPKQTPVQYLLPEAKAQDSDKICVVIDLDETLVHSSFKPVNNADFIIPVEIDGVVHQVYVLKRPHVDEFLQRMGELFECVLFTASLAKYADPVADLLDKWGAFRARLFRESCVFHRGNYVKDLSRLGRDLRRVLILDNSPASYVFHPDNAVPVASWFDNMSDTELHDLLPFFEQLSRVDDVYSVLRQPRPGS

[3] = target: DNA dC->dU-editing enzyme APOBEC-3G (Homo sapiens, UniProt Q9HC16); type: functional;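 also: Dose-response counterscreen measuring inhibition of APOBEC3G DNA deaminase activity, run while confirming APOBEC3A inhibitors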
[4] = target: DNA dC->dU-editing enzyme APOBEC-3A (Homo sapiens, UniProt P31941); experiment: Dose Response confirmation of small molecule APOBEC3A DNA Deaminase Inhibitors via a fluorescence-based single-stranded DNA deaminase assay. [Related pubchem assays (depositor defined):AID493011, AID493024]; type: functional
[5] = target: T2, Serine/threonine-protein kinase D3 (Homo sapiens, UniProt O94806); type: functional;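 also: determined within a kinase panel screen, with PRKCN as the panel member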
T2 sequence (O94806 whole entry): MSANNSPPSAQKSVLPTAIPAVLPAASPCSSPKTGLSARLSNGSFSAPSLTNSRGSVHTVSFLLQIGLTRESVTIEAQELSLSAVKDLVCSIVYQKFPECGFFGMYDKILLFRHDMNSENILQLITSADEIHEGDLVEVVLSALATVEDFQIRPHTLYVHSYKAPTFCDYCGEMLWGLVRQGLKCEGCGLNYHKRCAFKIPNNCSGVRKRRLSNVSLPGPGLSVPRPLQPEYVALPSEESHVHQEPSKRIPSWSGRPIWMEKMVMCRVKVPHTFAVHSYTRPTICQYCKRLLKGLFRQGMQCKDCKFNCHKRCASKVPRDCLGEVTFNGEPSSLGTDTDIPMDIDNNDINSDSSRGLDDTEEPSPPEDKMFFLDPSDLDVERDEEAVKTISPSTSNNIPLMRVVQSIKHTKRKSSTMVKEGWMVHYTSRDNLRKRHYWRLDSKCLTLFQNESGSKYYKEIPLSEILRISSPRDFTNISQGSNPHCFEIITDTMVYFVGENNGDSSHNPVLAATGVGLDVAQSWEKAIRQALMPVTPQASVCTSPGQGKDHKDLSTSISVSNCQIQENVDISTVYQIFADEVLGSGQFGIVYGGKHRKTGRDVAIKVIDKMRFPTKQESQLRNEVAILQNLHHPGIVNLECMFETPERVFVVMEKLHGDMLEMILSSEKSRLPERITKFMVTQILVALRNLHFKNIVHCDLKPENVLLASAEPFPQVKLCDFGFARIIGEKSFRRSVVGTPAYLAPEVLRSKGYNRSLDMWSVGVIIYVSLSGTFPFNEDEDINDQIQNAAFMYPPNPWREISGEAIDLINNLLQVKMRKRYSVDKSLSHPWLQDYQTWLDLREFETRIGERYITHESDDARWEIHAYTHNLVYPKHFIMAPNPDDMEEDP

[6] = target: Hepatocyte growth factor receptor (Homo sapiens, UniProt P08581); type: functional;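 also: kinase panel profiling across the kinome, with MET as the panel member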
[7] = target: T3, Sentrin-specific protease 7 (Homo sapiens, UniProt Q9BQF6); type: functional;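 also: Luminescence-based dose-response confirmation of ultra-high-throughput screening hits, measuring inhibition of SENP7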
T3 sequence (Q9BQF6 whole entry): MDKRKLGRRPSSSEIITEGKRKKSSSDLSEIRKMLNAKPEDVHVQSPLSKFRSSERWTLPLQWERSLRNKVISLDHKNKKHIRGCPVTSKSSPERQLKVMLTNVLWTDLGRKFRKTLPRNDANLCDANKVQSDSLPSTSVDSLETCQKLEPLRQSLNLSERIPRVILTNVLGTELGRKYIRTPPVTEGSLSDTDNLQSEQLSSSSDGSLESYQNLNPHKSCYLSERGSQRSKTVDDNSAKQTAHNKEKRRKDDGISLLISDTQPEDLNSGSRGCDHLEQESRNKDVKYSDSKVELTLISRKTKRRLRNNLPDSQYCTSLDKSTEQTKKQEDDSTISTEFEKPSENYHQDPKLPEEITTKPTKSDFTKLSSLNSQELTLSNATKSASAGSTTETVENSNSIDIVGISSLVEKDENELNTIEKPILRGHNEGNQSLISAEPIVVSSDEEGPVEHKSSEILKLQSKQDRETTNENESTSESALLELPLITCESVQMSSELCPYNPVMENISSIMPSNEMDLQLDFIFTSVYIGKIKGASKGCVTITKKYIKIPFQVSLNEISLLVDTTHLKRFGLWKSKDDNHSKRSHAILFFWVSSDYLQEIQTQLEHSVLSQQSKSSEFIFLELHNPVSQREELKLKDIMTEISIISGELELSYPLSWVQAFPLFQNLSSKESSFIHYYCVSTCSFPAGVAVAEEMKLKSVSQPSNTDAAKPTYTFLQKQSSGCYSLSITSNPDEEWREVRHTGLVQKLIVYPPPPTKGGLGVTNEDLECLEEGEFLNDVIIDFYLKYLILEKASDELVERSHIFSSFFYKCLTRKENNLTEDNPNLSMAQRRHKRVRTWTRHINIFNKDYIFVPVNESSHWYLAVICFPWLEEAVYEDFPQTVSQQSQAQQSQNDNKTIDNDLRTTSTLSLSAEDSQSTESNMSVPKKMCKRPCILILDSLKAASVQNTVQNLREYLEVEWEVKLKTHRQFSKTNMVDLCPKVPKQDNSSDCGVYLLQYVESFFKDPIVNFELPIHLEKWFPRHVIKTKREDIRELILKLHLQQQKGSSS

[8] = target: Voltage-dependent T-type calcium channel subunit alpha-1H (Homo sapiens, UniProt O95180); type: functional;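 also: channel activity triggered by adding a high calcium stimulation buffer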
[9] = target: T4, Sentrin-specific protease 8 (Homo sapiens, UniProt Q96LD8); type: functional;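 also: luminescence read-out of SENP8 inhibition, dose-response confirmation following an ultra-high-throughput screen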
T4 sequence (Q96LD8 whole entry): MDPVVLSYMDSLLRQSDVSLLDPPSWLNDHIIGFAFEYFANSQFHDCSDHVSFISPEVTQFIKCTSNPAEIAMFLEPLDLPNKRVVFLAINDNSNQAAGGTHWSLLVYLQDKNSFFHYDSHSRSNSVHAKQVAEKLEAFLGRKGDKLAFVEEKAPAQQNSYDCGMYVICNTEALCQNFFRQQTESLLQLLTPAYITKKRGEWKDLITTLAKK

[10] = Luminescence Cell-Based Dose Confirmation HTS to Identify Activators of 5'UTR Stem-Loop Driven Alpha-Synuclein mRNA Translation in H4 Neuroglioblastoma Cells. [Related pubchem assays: 1829 (Project Summary), 1814 (Primary HTS)]; type: functional
H4 = experiment: Luminescence Cell-Based Dose Response HTS to Identify Activators of 5'UTR Stem-Loop Driven Prion Protein mRNA Translation in H4 Neuroglioblastoma Cells. [Related pubchem assays: 1829 (Project Summary), 1814 (Primary HTS)]; type: functional; details: Homo sapiens
[11] = target: T5, Sentrin-specific protease 6 (Homo sapiens, UniProt Q9GZR1); type: functional;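 also: Luminescence-based dose-response confirmatory assay of SENP6 inhibition, following up an ultra-high-throughput screen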
T5 sequence (Q9GZR1 whole entry): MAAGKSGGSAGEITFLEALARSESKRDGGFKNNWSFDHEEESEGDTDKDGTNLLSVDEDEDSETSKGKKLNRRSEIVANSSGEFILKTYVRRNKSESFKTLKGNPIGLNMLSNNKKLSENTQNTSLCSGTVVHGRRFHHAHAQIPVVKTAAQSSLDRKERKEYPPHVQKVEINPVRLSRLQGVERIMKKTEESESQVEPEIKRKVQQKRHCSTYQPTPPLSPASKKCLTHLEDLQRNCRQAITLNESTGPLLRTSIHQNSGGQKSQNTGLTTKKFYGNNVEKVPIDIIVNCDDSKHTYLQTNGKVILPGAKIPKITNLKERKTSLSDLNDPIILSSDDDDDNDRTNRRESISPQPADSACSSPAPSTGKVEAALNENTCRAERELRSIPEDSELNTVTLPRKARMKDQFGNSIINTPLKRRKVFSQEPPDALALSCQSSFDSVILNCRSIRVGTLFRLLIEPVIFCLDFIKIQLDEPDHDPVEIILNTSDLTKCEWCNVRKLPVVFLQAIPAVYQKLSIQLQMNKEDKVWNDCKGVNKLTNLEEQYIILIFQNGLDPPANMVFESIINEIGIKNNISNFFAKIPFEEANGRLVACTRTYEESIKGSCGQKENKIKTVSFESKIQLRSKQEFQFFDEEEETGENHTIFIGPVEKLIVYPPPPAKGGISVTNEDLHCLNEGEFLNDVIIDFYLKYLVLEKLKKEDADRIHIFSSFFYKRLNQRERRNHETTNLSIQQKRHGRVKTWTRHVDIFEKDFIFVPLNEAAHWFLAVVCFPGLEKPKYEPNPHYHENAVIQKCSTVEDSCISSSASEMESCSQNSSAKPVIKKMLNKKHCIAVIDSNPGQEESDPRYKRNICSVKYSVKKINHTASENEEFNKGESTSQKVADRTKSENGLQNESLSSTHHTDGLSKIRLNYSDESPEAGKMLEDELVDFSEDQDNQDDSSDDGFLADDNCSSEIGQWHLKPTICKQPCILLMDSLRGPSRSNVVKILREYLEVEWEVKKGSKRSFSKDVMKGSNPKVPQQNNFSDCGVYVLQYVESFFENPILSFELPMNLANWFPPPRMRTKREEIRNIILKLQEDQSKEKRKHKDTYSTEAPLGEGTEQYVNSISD

[12] = Luminescence Cell-Based Dose Response HTS to Identify Activators of Luciferase Translation or Activity in H4 […] Cells. [Related pubchem assays: 1829 (Project Summary), 1814 (Primary HTS)]; type: functional
Caspase-3 = target: T6, Caspase-3 (Homo sapiens, UniProt P42574); type: functional;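 also: Dose-response selectivity test against caspase-3 for candidate inhibitors of sentrin-specific proteases (SENPs)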
T6 sequence (P42574 whole entry): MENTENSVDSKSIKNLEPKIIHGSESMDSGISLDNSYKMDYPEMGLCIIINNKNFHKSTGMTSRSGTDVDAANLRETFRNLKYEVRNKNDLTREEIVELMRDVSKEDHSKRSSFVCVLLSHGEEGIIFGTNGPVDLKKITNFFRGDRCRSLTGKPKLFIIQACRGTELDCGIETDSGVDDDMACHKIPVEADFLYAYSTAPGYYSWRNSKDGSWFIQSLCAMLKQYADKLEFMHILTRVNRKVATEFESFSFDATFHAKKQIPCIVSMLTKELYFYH

HEK293 = experiment: cells; type: functional, cell-based; details: Homo sapiens
[13] = target: T7, Nuclear receptor subfamily 0 group B member 1 (Homo sapiens, UniProt P51843); experiment: Luminescence-based cell-based high throughput dose response assay for inhibitors of the orphan nuclear receptor subfamily 0, group B, member 1 (DAX1; NR0B1). [Related pubchem assays (depositor defined):AID504766, AID504790]; type: functional
T7 sequence (P51843 whole entry): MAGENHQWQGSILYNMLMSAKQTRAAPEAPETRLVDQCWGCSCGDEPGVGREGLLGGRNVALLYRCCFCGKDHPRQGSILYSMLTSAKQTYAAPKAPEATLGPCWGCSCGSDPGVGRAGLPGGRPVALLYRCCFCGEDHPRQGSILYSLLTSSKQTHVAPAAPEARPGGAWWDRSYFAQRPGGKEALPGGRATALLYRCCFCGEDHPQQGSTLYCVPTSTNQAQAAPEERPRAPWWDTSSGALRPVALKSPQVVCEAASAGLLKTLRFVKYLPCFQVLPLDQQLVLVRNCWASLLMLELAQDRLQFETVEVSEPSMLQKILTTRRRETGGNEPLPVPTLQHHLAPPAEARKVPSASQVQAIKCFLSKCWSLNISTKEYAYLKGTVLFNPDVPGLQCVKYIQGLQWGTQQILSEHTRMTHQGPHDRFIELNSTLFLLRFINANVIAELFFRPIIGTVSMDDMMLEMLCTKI

[14] = DRD fibroblast viability loss – cell-based, non-viral oncogenic, luminescence, dose response (AID 1934); type: functional; details: Homo sapiens
BJ [15] = experiment: cells; type: functional, cell-based; details: Homo sapiens
[16] = alpha-synuclein stem-loop luciferase translation blockers – H4 neuroglioma cells, luminescence, confirmation (AID 1988); type: functional, cell-based
BJ [17] = experiment: growth inhibition of engineered Ras-driven BJ cells – cell-based, alamar blue fluorescence, cherrypicked samples, dose response (AID 2631); type: functional; details: Homo sapiens;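 also: confirmatory dose-response assay in RAS-dependent BJ fibroblasts engineered with TERT, LT and ST, with cytotoxicity read by fluorescence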
[18] = Luminescence Cell-Based Dose Response HTS to Identify Inhibitors of 5'UTR Stem-Loop Driven Prion Protein mRNA Translation in H4 Neuroglioblastoma Cells. [Related pubchem assays: 1827 (Project Summary), 1813 (Primary HTS)]; type: functional
BJ [19] = experiment: BJ-TERT fibroblast viability loss – cell-based, RAS-independent, luminescence, dose response (AID 1933); type: functional; details: Homo sapiens
[20] = luciferase reporter signal suppression in cells – H4 neuroglioma cells, luminescence, dose response (AID 1990); type: functional, cell-based
BJ [21] = experiment: BJ-TERT-LT-ST fibroblast viability loss – cell-based, RAS-independent, luminescence, dose response (AID 1935); type: functional; details: Homo sapiens;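 also: BJ fibroblasts immortalized with TERT plus LT and ST oncogenes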
[22] = target: Voltage-gated inwardly rectifying potassium channel KCNH2 (Homo sapiens, UniProt Q12809); details: Potency;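 also: confirmatory quantitative high-throughput screen measuring inhibition of hERG channel activity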
Chain of Voltage-gated inwardly rectifying potassium channel KCNH2 (Q12809 whole entry): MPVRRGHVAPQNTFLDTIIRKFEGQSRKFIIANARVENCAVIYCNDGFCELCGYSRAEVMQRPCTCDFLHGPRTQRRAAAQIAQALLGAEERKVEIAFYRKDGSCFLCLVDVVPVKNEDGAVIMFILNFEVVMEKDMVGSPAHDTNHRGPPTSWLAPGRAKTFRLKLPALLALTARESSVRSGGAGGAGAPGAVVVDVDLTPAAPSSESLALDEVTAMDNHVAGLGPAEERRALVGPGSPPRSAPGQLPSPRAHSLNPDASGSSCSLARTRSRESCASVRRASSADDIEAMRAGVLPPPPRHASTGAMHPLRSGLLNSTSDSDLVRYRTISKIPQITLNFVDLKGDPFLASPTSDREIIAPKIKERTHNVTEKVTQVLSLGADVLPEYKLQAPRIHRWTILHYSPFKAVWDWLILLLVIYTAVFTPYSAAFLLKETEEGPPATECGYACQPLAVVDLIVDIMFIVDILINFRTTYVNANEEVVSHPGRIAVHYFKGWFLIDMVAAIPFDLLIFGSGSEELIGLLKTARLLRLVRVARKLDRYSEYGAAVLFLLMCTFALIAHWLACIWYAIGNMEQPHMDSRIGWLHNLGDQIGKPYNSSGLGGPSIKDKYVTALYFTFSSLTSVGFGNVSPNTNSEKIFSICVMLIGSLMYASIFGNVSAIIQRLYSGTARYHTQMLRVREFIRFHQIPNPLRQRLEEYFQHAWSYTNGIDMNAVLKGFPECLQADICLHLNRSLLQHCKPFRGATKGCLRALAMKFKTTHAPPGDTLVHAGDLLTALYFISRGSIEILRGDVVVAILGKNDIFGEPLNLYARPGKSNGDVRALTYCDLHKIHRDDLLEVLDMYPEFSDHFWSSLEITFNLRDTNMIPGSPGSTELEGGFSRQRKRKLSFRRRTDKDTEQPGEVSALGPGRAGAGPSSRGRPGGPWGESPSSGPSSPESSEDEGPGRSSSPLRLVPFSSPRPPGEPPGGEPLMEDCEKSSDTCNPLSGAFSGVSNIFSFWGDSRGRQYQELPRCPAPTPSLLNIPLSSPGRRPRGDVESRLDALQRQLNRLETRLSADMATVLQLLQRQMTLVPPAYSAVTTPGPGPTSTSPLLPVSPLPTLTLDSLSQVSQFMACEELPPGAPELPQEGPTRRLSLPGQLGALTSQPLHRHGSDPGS

Chain of DNA dC->dU-editing enzyme APOBEC-3A (P31941 whole entry): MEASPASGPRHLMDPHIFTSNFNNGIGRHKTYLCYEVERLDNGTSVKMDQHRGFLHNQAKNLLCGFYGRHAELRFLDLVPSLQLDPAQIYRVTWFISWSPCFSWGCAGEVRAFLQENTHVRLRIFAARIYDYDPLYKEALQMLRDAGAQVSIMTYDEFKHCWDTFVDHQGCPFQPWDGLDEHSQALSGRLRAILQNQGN
Chain of Hepatocyte growth factor receptor (P08581 whole entry): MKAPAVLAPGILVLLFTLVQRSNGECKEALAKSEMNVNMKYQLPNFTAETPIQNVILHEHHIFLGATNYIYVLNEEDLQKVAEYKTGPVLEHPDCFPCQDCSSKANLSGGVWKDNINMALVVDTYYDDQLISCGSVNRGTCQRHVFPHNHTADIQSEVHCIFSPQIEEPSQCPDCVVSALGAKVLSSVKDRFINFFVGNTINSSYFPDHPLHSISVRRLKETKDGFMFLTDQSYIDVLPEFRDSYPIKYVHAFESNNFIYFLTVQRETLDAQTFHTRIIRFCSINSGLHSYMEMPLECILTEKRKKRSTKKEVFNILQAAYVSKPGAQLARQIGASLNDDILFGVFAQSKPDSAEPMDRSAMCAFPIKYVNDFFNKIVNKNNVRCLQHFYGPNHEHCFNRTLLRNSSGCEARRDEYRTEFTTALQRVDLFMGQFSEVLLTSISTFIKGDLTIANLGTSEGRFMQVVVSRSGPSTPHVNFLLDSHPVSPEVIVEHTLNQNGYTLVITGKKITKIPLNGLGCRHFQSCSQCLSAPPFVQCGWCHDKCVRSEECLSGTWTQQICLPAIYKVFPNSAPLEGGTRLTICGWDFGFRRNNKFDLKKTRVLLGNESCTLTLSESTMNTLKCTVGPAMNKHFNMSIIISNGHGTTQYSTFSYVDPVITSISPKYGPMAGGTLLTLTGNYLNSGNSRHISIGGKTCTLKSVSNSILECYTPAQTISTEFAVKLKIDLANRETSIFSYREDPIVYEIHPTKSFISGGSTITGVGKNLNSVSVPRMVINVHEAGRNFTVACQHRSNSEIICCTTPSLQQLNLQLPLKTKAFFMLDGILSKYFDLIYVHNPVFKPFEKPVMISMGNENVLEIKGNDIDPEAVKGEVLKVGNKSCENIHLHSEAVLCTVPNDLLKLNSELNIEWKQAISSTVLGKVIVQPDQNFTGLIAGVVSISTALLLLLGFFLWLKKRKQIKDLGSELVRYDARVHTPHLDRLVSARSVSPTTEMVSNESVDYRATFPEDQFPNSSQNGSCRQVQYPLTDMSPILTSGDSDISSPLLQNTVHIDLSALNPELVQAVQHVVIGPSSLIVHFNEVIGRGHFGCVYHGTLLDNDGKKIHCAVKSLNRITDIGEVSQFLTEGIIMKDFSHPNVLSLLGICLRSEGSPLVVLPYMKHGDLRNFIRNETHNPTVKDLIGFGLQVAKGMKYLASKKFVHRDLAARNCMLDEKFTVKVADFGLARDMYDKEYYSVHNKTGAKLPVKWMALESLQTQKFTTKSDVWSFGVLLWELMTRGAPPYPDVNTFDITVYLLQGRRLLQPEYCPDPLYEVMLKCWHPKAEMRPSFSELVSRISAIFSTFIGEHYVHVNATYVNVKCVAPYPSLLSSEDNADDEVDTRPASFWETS
Chain of DNA (cytosine-5)-methyltransferase 1 (P26358 whole entry, the tested form may be a part): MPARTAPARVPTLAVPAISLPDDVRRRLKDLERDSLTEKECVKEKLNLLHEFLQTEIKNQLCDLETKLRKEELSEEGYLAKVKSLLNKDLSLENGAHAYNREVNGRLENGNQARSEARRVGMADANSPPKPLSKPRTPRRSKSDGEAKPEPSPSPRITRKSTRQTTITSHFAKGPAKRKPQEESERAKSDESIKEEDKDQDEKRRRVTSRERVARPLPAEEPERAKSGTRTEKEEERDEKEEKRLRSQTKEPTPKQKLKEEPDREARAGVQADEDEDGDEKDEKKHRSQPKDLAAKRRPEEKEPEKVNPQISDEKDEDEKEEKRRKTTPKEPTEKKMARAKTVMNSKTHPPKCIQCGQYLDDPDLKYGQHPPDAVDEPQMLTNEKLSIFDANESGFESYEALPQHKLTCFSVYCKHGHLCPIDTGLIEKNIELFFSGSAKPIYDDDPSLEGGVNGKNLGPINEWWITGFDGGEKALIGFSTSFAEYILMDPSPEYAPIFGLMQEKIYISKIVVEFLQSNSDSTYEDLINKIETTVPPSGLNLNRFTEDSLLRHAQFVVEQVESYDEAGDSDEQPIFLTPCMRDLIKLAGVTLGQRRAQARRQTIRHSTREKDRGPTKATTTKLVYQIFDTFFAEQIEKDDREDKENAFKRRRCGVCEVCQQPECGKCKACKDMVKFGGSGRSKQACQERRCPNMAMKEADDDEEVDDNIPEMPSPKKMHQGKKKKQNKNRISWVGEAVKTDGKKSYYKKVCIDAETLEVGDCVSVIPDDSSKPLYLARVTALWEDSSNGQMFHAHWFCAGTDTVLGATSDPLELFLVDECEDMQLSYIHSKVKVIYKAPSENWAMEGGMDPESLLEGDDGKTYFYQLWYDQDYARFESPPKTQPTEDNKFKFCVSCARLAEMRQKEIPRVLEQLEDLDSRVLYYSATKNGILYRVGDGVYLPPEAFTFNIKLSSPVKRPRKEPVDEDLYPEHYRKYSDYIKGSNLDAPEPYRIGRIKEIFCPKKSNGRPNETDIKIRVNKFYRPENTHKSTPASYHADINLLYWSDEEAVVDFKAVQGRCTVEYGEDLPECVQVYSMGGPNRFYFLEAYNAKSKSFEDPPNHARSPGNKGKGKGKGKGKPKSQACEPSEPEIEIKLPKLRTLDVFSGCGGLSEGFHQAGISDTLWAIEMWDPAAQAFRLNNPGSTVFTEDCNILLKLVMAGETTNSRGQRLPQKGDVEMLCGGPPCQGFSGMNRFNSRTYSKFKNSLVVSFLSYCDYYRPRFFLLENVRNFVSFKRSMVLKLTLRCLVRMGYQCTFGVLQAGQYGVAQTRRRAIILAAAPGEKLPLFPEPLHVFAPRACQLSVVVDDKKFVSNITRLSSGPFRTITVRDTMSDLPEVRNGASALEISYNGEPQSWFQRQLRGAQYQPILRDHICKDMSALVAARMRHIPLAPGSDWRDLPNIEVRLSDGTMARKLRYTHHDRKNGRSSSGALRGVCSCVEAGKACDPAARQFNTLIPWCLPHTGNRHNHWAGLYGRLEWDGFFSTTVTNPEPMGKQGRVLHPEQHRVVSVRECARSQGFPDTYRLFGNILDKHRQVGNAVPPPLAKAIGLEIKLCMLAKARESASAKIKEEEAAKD
Chain of DNA dC->dU-editing enzyme APOBEC-3G (Q9HC16 whole entry): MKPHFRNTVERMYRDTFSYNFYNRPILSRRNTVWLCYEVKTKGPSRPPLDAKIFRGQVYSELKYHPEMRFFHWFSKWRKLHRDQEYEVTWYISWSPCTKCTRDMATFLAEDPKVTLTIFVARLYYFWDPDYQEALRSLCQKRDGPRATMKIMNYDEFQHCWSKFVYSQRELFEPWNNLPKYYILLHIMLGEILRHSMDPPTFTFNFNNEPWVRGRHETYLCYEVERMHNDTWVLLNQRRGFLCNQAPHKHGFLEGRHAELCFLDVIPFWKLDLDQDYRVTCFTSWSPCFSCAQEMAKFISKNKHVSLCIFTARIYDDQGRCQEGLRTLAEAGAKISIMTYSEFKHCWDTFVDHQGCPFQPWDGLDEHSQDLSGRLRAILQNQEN

O=C(COC(=O)c1cc2c(s1)CCC2)Nc1ccc(F)cc1
IC50 [1]: 10.3 µM (active) | IC50 [2]: 4.34 µM (active) | IC50 [3]: 34.6 µM (active) | IC50 [4]: 19.6 µM (active)

CCCC(=O)Nc1cccc(-c2nc(Nc3ccc4[nH]ncc4c3)c3cc(OCCOC)ccc3n2)c1
Ki [5]: 1.26 µM (active) | Ki [6]: 2.51 µM (active)

Cc1nnc(SCCC(=O)Nc2nc(-c3ccccc3)ns2)s1
IC50 [7]: 13.1 µM (active) | EC50 [8]: 2.54 µM (active) | IC50 [9]: 24.1 µM (active) | EC50 [10]: > 120 µM (not active) | EC50 (H4): 8.61 µM (active) | IC50 [11]: 21.9 µM (active) | EC50 [12]: 15 µM (active) | IC50 (Caspase-3): 44.1 µM (active)

O=CNC(n1cnc2c(N3CCOCC3)ncnc21)C(Cl)(Cl)Cl (configuration not stated)
IC50 (HEK293): > 67.5 µM (inactive) | IC50 [13]: > 67.5 µM (inactive)

CCCc1cc(O)nc(SCC(=O)c2c(N)n(CC(C)C)c(=O)n(C)c2=O)n1
EC50 [14]: 10.7 µM (active) | EC50 (BJ [15]): 9.97 µM (inconclusive) | EC50 [16]: 12.1 µM (active) | EC50 (BJ [17]): > 133 µM (inactive) | EC50 [18]: 18.1 µM (active) | EC50 (BJ [19]): > 150 µM (not active) | EC50 [20]: 9.13 µM (active) | EC50 (BJ [21]): > 150 µM (not active)

O=C(CN1C(=O)NC2(CCCC2)C1=O)Nc1ccc(OC(F)(F)F)cc1
IC50 (HEK293): > 67.5 µM (inactive) | IC50 [13]: > 67.5 µM (inactive)

NC(=S)NCCCC(N)C(=O)O (configuration not stated)
AC50 [22]: 35.5 µM (inconclusive)
